Our source for the inhibition and Activity values is ChEMBL document CHEMBL5052834, “CXCL10 Inhibitors” (2021).

Molecules are shown by their SMILES. Active and inactive are the calls of the source. The calls are words filed in the database; no cut-off is given here.

The test system of experiment [1] is Keratinocyte. In words: Inhibition of CXCL10 protein secretion in TNF-alpha-stimulated human keratinocytes measured by ELISA assay. Type of experiment: functional, cell-based. In general terms: In an ELISA, binding on a coated surface is turned into a signal by an enzyme label.
Experiment [2] has as its system Keratinocyte. In words: Inhibition of CXCL10 protein secretion in IFN-gamma-stimulated human keratinocytes measured by ELISA assay. In kind it is functional, cell-based.
Experiment [3] relates to Keratinocyte. Nature of the experiment: Inhibition of CXCL10 protein secretion in LPS-stimulated human keratinocytes measured by ELISA assay. Type of experiment: functional, cell-based.
Experiment [4] concerns Keratinocyte. Nature of the experiment: Inhibition of CXCL10 gene expression in TNF-alpha-stimulated human keratinocytes. In kind it is functional, cell-based.
For experiment [5], the system named is Keratinocyte. Nature of the experiment: Inhibition of CXCL10 protein secretion in poly (I:C)-stimulated human keratinocytes measured by ELISA assay. In kind it is functional, cell-based.
Experiment [6] concerns Keratinocyte. In words: Inhibition of CXCL10 gene expression in poly (I:C)-stimulated human keratinocytes. Type of experiment: functional, cell-based.
Experiment [7] relates to Keratinocyte. Nature of the experiment: Inhibition of CXCL10 gene expression in LPS-stimulated human keratinocytes. Type of experiment: functional, cell-based.
Experiment [8] has as its system Keratinocyte. In words: Inhibition of CXCL10 gene expression in IFN-gamma-stimulated human keratinocytes. Type of experiment: functional, cell-based.
For experiment [9], the species on record is Rattus norvegicus. In words: Inhibition of CXCL10 gene expression in streptozotocin (STZ)-induced diabetes induced retinopathy model of rat assessed as decrease in amount of CXCL10 in retina measured by ELISA assay. Type of experiment: functional.
The species entered for experiment [10] is Rattus norvegicus. In words: Antiangiogenic activity in streptozotocin (STZ)-induced diabetes induced retinopathy model of rat assessed as decrease in retinal vascular permeability measured by Evans blue dye metho. In kind it is functional, organism-based.
The test system of the next experiment is Mus musculus. In words: In vivo inhibition of CXCL10 gene expression in experimental autoimmune uveitis (EAU) model of C57BL/6 mouse. In kind it is functional, organism-based.

For the compound `COc1ccnc(CC(C)(O)c2nc3cc(OC(F)(F)F)ccc3[nH]2)c1OC` (stereo not drawn), the inhibition entry with Keratinocyte [1] was “Active”.

With `COc1ccnc(CS(=O)(=O)c2nc3cc(OC(F)F)ccc3[nH]2)c1OC`, the inhibition result in the experiment with Keratinocyte [2] is “Active”.

On to `Cc1c(OCC(F)(F)F)ccnc1CC(C)(O)c1nc2cc(OC(F)F)ccc2[nH]1` (stereo not drawn), for which the inhibition entry in the experiment on Keratinocyte [3] was “Active”.

Turning to `COc1ccnc(CC(O)c2nc3cc(OC(F)(F)F)ccc3[nH]2)c1OC` (stereo not drawn), in the experiment on Keratinocyte [1], the inhibition entry was “Active”.

Consider `Cc1c(OCC(F)(F)F)ccnc1CS(=O)(=O)c1nc2cc(-n3cccc3)ccc2[nH]1`, for which the inhibition result in the experiment with Keratinocyte [4] was “Active”.

Take `COc1ccnc(C[S+]([O-])c2nc3cc(-n4cccc4)ccc3[nH]2)c1C` (stereo not drawn): the inhibition result in the experiment on Keratinocyte [1] and with Keratinocyte [5] was “Active” throughout.

Regarding `COc1ccnc(CC(O)c2nc3ccccc3[nH]2)c1C` (stereo not drawn), the inhibition result in the experiment with Keratinocyte [6] and in the experiment with Keratinocyte [5] was “Active” in each case.

Regarding `Cc1c(OCC(F)(F)F)ccnc1CS(=O)(=O)c1nc2cc(OC(F)F)ccc2[nH]1`, the inhibition entry in the experiment on Keratinocyte [7] and in the experiment with Keratinocyte [8] was “Active” throughout.

Regarding `COc1c(C)cnc(CS(=O)(=O)c2nc3cc(OC(F)F)ccc3[nH]2)c1C`, the inhibition entry with Keratinocyte [7] is “Active”.

With `COc1c(C)cnc(CS(=O)(=O)c2nc3cc(-n4cccc4)ccc3[nH]2)c1C`, the inhibition entry with Keratinocyte [5] is “Active”.

On to `COc1ccnc(CS(=O)(=O)c2nc3ccccc3[nH]2)c1OC`, for which the inhibition entry in the experiment with Keratinocyte [6] is “Active”.

Regarding `COCCCOc1ccnc(CS(=O)(=O)c2nc3ccccc3[nH]2)c1C`, the inhibition entry in the experiment on Keratinocyte [2] was “Active”.

On to `COc1c(C)cnc(CC(O)c2nc3cc(-n4cccc4)ccc3[nH]2)c1C` (stereo not drawn), for which, in the experiment with Keratinocyte [8], the inhibition result is “Active”.

`COc1ccc2[nH]c(S(=O)(=O)Cc3ncc(C)c(OC)c3C)nc2c1`: the inhibition entry with Keratinocyte [3] was “Active”.

With `COc1ccc2[nH]c([S+]([O-])Cc3ncc(C)c(OC)c3C)nc2c1` (stereo not drawn), the inhibition entry in the experiment on Keratinocyte [3], in the experiment listed under Rattus norvegicus [9], with Keratinocyte [6], in the experiment with Keratinocyte [2], with Mus musculus and in the experiment with Keratinocyte [4] was “Active” throughout. Further, the inhibition result in the experiment on Keratinocyte [5] is “Active”. In addition, the outcome in the experiment filed under Rattus norvegicus [10] was Active.

With `COc1c(C)cnc(C[S@@](=O)c2nc3ccccc3[nH]2)c1C`, the inhibition result in the experiment on Keratinocyte [1] is “Active”.

Take `COc1c(C)cnc(C[S@@+]([O-])c2nc3cc(OC(F)F)ccc3[nH]2)c1C`: the inhibition entry in the experiment with Keratinocyte [3] was “Active”.

Take `COc1ccnc(CC(O)c2nc3cc(OC(F)(F)F)ccc3[nH]2)c1C` (stereo not drawn): the inhibition result in the experiment with Keratinocyte [4] was “Active”.

As to `COc1c(C)cnc(C[S@+]([O-])c2nc3cc(OC(F)F)ccc3[nH]2)c1C`, the inhibition entry in the experiment on Keratinocyte [7] is “Active”.

Take `COc1ccc2[nH]c([S@+]([O-])Cc3ncc(C)c(OC)c3C)nc2c1`: the inhibition result in the experiment on Keratinocyte [8] was “Active”.

With `Cc1c(OCC(F)(F)F)ccnc1C[S+]([O-])c1nc2ccccc2[nH]1` (stereo not drawn), the inhibition entry in the experiment on Keratinocyte [3], in the experiment with Keratinocyte [7], in the experiment with Keratinocyte [8] and in the experiment on Keratinocyte [4] was “Active” in each case.

Turning to `COc1ccc2[nH]c(C(=O)Cc3ncc(C)c(OC)c3C)nc2c1`, the inhibition result in the experiment on Keratinocyte [6] was “Active”.

In the case of `COc1c(C)cnc(CC(O)c2nc3ccccc3[nH]2)c1C` (stereo not drawn), the inhibition result in the experiment with Keratinocyte [4] was “Active”.

Take `Cc1cnc(CC(=O)c2nc3ccccc3[nH]2)c(C)c1OCC(F)(F)F`: the inhibition result in the experiment with Keratinocyte [5] was “Active”.

As to `COCCCOc1ccnc(C[S@+]([O-])c2nc3cc(OC(F)(F)F)ccc3[nH]2)c1C`, the inhibition result with Keratinocyte [3] was “Active”.

Consider `COCCCOc1ccnc(CC(=O)c2nc3cc(OC(F)(F)F)ccc3[nH]2)c1C`, for which the inhibition entry with Keratinocyte [6] is “Active”.

Consider `COc1ccnc(C[S+]([O-])c2nc3cc(OC(F)F)ccc3[nH]2)c1OC` (stereo not drawn), for which the inhibition entry in the experiment filed under Rattus norvegicus [9], with Keratinocyte [6], in the experiment with Keratinocyte [7], in the experiment with Keratinocyte [2] and with Keratinocyte [4] was “Active” each time. In the experiment listed under Rattus norvegicus [10], the outcome was Active.

In the case of `Cc1cnc(CC(O)c2nc3cc(OC(F)F)ccc3[nH]2)c(C)c1OCC(F)(F)F` (stereo not drawn), the inhibition result in the experiment on Keratinocyte [2] was “Active”.

As for `COc1ccc2[nH]c(S(=O)(=O)Cc3nccc(OC)c3C)nc2c1`, the inhibition entry in the experiment with Keratinocyte [8] is “Active”.

For the compound `COc1ccc2[nH]c([S@@+]([O-])Cc3nccc(OC)c3C)nc2c1`, the inhibition result in the experiment on Keratinocyte [1] and in the experiment with Keratinocyte [8] was “Active” in each case.

As for `COCCCOc1ccnc(C[S+]([O-])c2nc3ccccc3[nH]2)c1C` (stereo not drawn), the inhibition result in the experiment on Keratinocyte [7], in the experiment on Keratinocyte [1] and with Keratinocyte [5] was “Active” throughout.

`COc1ccnc(CC(C)(O)c2nc3cc(-n4cccc4)ccc3[nH]2)c1OC` (stereo not drawn): the inhibition entry in the experiment on Keratinocyte [2] is “Active”.
